Like-named read-outs stand apart in the source and are kept apart here.
Test: Pharmacokinetics of subcutaneous LEN in pigtail macaques
Assay type: in vivo, pigtail macaques (Macaca nemestrina)
Conditions: for range of peak plasma LEN concentration after second dose / mean peak plasma LEN concentration after first dose / range of peak plasma LEN concentration after first dose: N = 3; for time mean plasma drug concentrations above the PA-EC95: two doses 6 weeks apart; for half-life: sc
Method: Sixteen male, purpose-bred pigtail macaques (Macaca nemestrina; ages 4.6–8.5 years at the time of study initiation) were housed at NIH-Bethesda (Supplementary Table S1). All study animals received enrofloxacin (10 mg/kg, administered orally, once per day for 10 days), paromomycin (25 mg/kg, administered orally, twice daily for 7–10 days), and fenbendazole (50 mg/kg administered orally, once per day for 5 days) two weeks to 43 months prior to study initiation. Lenacapavir or drug vehicle (sterile, preservative-free 57.5% w/v polyethylene glycol 300 in water) doses were administered to sedated animals via SC injection into the scapular region such that no more than 2 ml of solution was injected into a single SC site. Animals in the LEN pharmacokinetic evaluation study (N = 6) each received two doses of LEN, both at 15 mg/kg (N = 3) or at 50 mg/kg (N = 3), 6 weeks apart. Animals in the virus challenge experiment each received a single dose of LEN at 25 mg/kg (N = 3, LEN PrEP group) or drug vehicle (N = 4, vehicle control group) 30 days prior to stHIV-A19 challenge, or a cART regimen consisting of tenofovir disoproxil fumarate (TDF), emtricitabine (FTC), and dolutegravir (DTG) (N = 3, TDF/FTC/DTG group), coformulated and administered as previously described[29]^,[30] for 7 days beginning 3 days prior to stHIV-A19 challenge (Supplementary Figure S1). Hair was clipped and skin marked at LEN and vehicle injection sites to allow for subsequent visual and manual assessment and scoring of potential ISRs by non-blinded veterinary care staff. Complete blood counts (CBC) and serum chemistries were monitored prior to and at 2- to 4-week intervals after LEN administration for at least one year. Following the first dose of LEN in the PK study, one animal in the 50-mg/kg dosing group received 7 consecutive days of daily ketoprofen (2 mg/kg) administered intramuscularly for ISR analgesia at veterinary discretion. For the second dose of LEN in the PK study, all animals in the 50-mg/kg dosing group received 5–7 consecutive days of twice daily oral carprofen (2 mg/kg) analgesia administered prophylactically starting on the day of LEN dosing. In the IV challenge PrEP study, all LEN and vehicle control animals received 3–5 consecutive days of twice daily oral carprofen (2 mg/kg) analgesia administered prophylactically starting on the day of injection. For virus challenge, PrEP study animals each received 1 × 10^5 infectious units of stHIV-A19 injected intravenously. After LEN washout, LEN PrEP group animals received a single 50-mg/kg dose of rhesusized depleting anti-CD8α antibody (MT807R1, RRID: AB_2716320, NIH Nonhuman Primate Reagent Resource), administered SC to anesthetized animals.
Whole blood was collected in EDTA Vacutainer Tubes (BD) from sedated animals. Plasma for vRNA quantification, LEN concentration determination, and HIV-1 Western blot analysis was separated from whole blood and clarified by centrifugation, and then stored at −80 °C. Following plasma separation, the blood cellular component was resuspended in an equivalent volume of PBS and then PBMCs were isolated by Ficoll-Paque Plus (GE Healthcare) gradient centrifugation. Portions of isolated PBMC samples were cryopreserved as dry cell pellets for CA-vDNA quantification.
Pigtail macaque plasma samples stored frozen at −80 °C were thawed, and a 50 μl aliquot of each was treated with 200 μl acetonitrile containing a generic internal small-molecule standard. After precipitation of the protein component, a 150 μl aliquot of the supernatant was transferred to a clean 96-well plate and evaporated to dryness under a nitrogen stream. The samples were reconstituted with 100 μL of 50% acetonitrile and then injected into an API-6500+ QTRAP triple quadrupole mass spectrometer (SciEx) with electrospray ionization in positive mode. […]

[1] = 15 mg/kg SC on Study Day 0 and 42, PTM, N = 3, mean ± SD
[2] = 25 mg/kg single SC dose on Study Day 0, PTM, N = 3, mean ± SD
[3] = 25 mg/kg single SC dose, all three animals
[4] = 50 mg/kg SC on Study Day 0 and 42, PTM, N = 3, mean ± SD

Question: With CC(C)(C#Cc1ccc(-c2ccc(Cl)c3c(NS(C)(=O)=O)nn(CC(F)(F)F)c23)c([C@H](Cc2cc(F)cc(F)c2)NC(=O)Cn2nc(C(F)(F)F)c3c2C(F)(F)[C@@H]2C[C@H]32)n1)S(C)(=O)=O [LEN, Lenacapavir] as the compound, how does the “range of peak plasma LEN concentration after second dose” value (15 mg/kg SC on Study Day 0 and 42, PTM) read?
Answer: 57 to 77 nM

Question: And the AUCinf [1]?
Answer: 80.9 ± 2.5 μM∗h

Question: And the AUClast [1]?
Answer: 80.7 ± 2.5 μM∗h

Question: And the Cmax (15 mg/kg SC on Study Day 0 and 42, PTM, N = 3, mean ± SD, read-out: Cmax (mean peak plasma concentration after second dose))?
Answer: 67.8 ± 10.1 nM

Question: What about the “mean peak plasma LEN concentration after first dose” value (15 mg/kg SC, PTM) of the same compound?
Answer: 16 nM

Question: And the “range of peak plasma LEN concentration after first dose” value (15 mg/kg SC, PTM)?
Answer: 10 to 28 nM

Question: And the “time mean plasma drug concentrations above the PA-EC95” value (15 mg/kg SC, PTM)?
Answer: > 189 days

Question: And the AUCinf [2]?
Answer: 92.0 ± 17.8 μM∗h

Question: And the AUClast [2]?
Answer: 91.3 ± 17.8 μM∗h

Question: What about the “plasma LEN concentration at time of stHIV-A19 challenge relative to PA-EC95” value (25 mg/kg single SC dose, 30 days after dosing, all 3 animals) of the same compound?
Answer: > 5 fold

Question: And the “plasma LEN at 419 days post-challenge” value (25 mg/kg single SC dose, LEN PrEP animals)?
Answer: no longer detected in plasma

Question: And the “time plasma LEN concentrations remaining above the PA-EC95” value [3]?
Answer: > 200 days

Question: What about the “time plasma LEN remaining above the lower limit of quantitation (LLOQ, 0.1 nM)” value [3] of the same compound?
Answer: more than one year

Question: And the “range of peak plasma LEN concentration after second dose” value (50 mg/kg SC on Study Day 0 and 42, PTM)?
Answer: 234 to 350 nM

Question: What about the AUCinf [4] of the same compound?
Answer: 408 ± 106 μM∗h

Question: What about the AUClast [4] of the same compound?
Answer: 408 ± 106 μM∗h

Question: What about the “mean peak plasma LEN concentration after first dose” value (50 mg/kg SC, PTM) of the same compound?
Answer: 95 nM

Question: And the “range of peak plasma LEN concentration after first dose” value (50 mg/kg SC, PTM)?
Answer: 48 to 120 nM

Question: And the “time mean plasma drug concentrations above the PA-EC95” value (50 mg/kg SC, PTM)?
Answer: > 245 days

Question: And the half-life (male, monkey, in vivo, 15 mg/kg, 15 mg/kg SC on Study Day 0 and 42, PTM, N = 3, mean ± SD, read-out: t1/2 (converted))?
Answer: 42.1 ± 28.2 days

Question: What about the half-life (male, monkey, in vivo, 15 mg/kg, 15 mg/kg SC, after second dose, PTM, read-out: mean terminal half-life (t1/2) (converted)) of the same compound?
Answer: 42 days

Question: What about the half-life (male, monkey, in vivo, 25 mg/kg, 25 mg/kg single SC dose on Study Day 0, PTM, N = 3, mean ± SD, read-out: t1/2 (converted)) of the same compound?
Answer: 38.5 ± 14.2 days

Question: What about the half-life (male, monkey, in vivo, 50 mg/kg, 50 mg/kg SC on Study Day 0 and 42, PTM, N = 3, mean ± SD, read-out: t1/2 (converted)) of the same compound?
Answer: 48.3 ± 5.83 days

Question: And the half-life (male, monkey, in vivo, 50 mg/kg, 50 mg/kg SC, after second dose, PTM, read-out: mean terminal half-life (t1/2) (converted))?
Answer: 48 days

Question: And the Cmax (male, monkey, plasma, Cmax (mean peak plasma concentration after second dose), 15 mg/kg SC on Study Day 0 and 42, PTM, N = 3, mean ± SD, read-out: Cmax (mean peak plasma concentration after second dose))?
Answer: 68 nM

Question: And the Cmax (male, monkey, plasma, Cmax (mean peak plasma concentration after second dose), 50 mg/kg SC on Study Day 0 and 42, PTM, N = 3, mean ± SD, read-out: Cmax (mean peak plasma concentration after second dose))?
Answer: 295 ± 58 nM

Question: What about the Cmax (male, monkey, plasma, Cmax, 25 mg/kg single SC dose on Study Day 0, PTM, N = 3, mean ± SD, read-out: Cmax) of the same compound?
Answer: 47 ± 5.7 nM

Question: And the half-life (male, pigtail macaque, in vivo, 25 mg/kg, 25 mg/kg single SC dose, PTM, read-out: mean t1/2 (converted))?
Answer: 38.5 days

Question: What about the concentration at 30 days (male, pigtail macaque, in vivo, 25 mg/kg single SC dose, 30 days after dosing, range of 3 animals, read-out: plasma LEN concentrations at the time of stHIV-A19 challenge) of the same compound?
Answer: 8.6 to 51.2 nM

Source: PMC10470178, “Long-acting lenacapavir protects macaques against intravenous challenge with simian-tropic HIV” (eBioMedicine, 2023)
